According to US12318375B2, “Method of treatment with tradipitant” (Vanda Pharmaceuticals Inc., priority 2015, dated 2025):

Legend:
[1] = tested on: chronic pruritus in patients with atopic dermatitis; assay: Phase II proof of concept clinical study VP-VLY-686-2101: efficacy on pruritus measures; assay type: in vivo, human; conditions: for VAS Average change (primary): tradipitant 100 mg qd oral in the evening
Description: A phase II proof of concept clinical study (Study ID VP-VLY-686-2101, “Proof of Concept of VLY-686 in Subjects With Treatment-Resistant Pruritus Associated With Atopic Dermatitis”) was conducted, investigating the safety and efficacy of tradipitant as a monotherapy in the treatment of chronic pruritus in patients with atopic dermatitis.
In the study, patients with a Visual Analog Scale (VAS) score of greater than 70 mm during one of the two days preceding inclusion into the study were randomized to receive orally either 100 mg of tradipitant (N=34) or placebo (N=35) once a day in the evening. In the tradipitant arm of the study, tradipitant was orally administered to patients in capsules with standard excipients in an amount of 100 mg in the evening. Clinical assessments were made after 3 or 4 weeks of daily treatment, or at both 3 weeks and 4 weeks, each assessment being done in the morning of the day after last treatment or in the afternoon of the day after last treatment. The tradipitant was administered in an immediate release form comprising tradipitant and pharmaceutically acceptable excipients in a capsule. The tradipitant particle size was approximately: D10: <5 um, D50: <10 um, and D90: <25 um, wherein D10 means that 10% of the particles are of the indicated mean particle size, D50 means that 50% of the particles are of the indicated mean particle size, and D90 means that 90% of the particles are of the indicated mean particle size.
Baseline VAS scores were 76.1 and 77.2 for the tradipitant and placebo arms respectively. Efficacy was evaluated through a number of clinical research instruments. In addition, at the time of efficacy evaluation blood samples were collected for PK analysis in order to determine the plasma levels of tradipitant.

[2] = Example 2: plasma concentration of tradipitant in healthy subjects (85 mg qd, then Q12H); assay type: in vivo, human
Description: In one study, healthy subject participants were orally administered 85 mg tradipitant on study day 3, and then 85 mg tradipitant Q12H on study days 4-16. Plasma concentration levels of tradipitant were measured on each of day 3, day 7, and day 11.
This study illustrated that administration of 85 mg tradipitant qd (on day 3) produced an average plasma concentration over hours 0-12 that was about 50% of the plasma concentration observed in the PM group in Example 1. On days 7 and 11, the average plasma concentration over hours 0-12 following administration of 85 mg bid (specifically, Q12H) tradipitant was about 150% of the plasma concentration observed in the PM group in Example 1. The average plasma concentration over hours 0-12 at each point was determined by dividing the AUC for hours 0-12 (in (hr.)×(ng/mL)) by 12 hours.

average plasma concentration over hours 0-12 (AUC 0-12 divided by 12 hours) relative to PM group in Example 1 ([2]; day 3, 85 mg qd oral): about 50% | average plasma concentration over hours 0-12 (AUC 0-12 divided by 12 hours) relative to PM group in Example 1 ([2]; days 7 and 11, 85 mg bid (Q12H) oral): about 150%
SMILES: O=C(c1ccccc1Cl)c1cccnc1-c1nnn(Cc2cc(C(F)(F)F)cc(C(F)(F)F)c2)c1-c1ccncc1 [Tradipitant, {2-[1-(3,5-Bistrifluoromethylbenzyl)-5-pyridin-4-yl-1H-[1,2,3]triazol-4-yl]-pyridin-3-yl}-(2-chlorophenyl)-methanone]
endpoints that correspond to the underlying disease (SKINDEX, SCORAD objective, EASI and DLQI) compared with placebo ([1]; 100 mg qd, 4-week study): did not show any significant difference from placebo | VAS Average change (primary) ([1]; AM group (morning assessment), N = 18, after 3 or 4 weeks): −54 | CGIC, Diff tradipitant vs placebo ([1]; AM group, 100 mg qd): −1.15 | DLQI change, Diff tradipitant vs placebo ([1]; AM group, 100 mg qd): 0.35 | PBI, Diff tradipitant vs placebo ([1]; AM group, 100 mg qd): 0.74 | SCORAD change, Diff tradipitant vs placebo ([1]; AM group, 100 mg qd): −5.23 | VAS Worst change, Diff tradipitant vs placebo ([1]; AM group, 100 mg qd): −21.9 | VRS change, Diff tradipitant vs placebo ([1]; AM group, 100 mg qd): −0.79 | PBI ([1]; AM group, 100 mg qd, N = 18): 1.47 | VAS Average change, Diff tradipitant vs placebo ([1]; AM group, 100 mg qd, tradipitant N = 18 vs placebo N = 17): −23.7 | VAS Average change (primary) ([1]; PM group (afternoon assessment), N = 13, after 3 or 4 weeks): −28.8 | CGIC, Diff tradipitant vs placebo ([1]; PM group, 100 mg qd): 0.19 | DLQI change, Diff tradipitant vs placebo ([1]; PM group, 100 mg qd): −1.89 | PBI, Diff tradipitant vs placebo ([1]; PM group, 100 mg qd): −0.39 | SCORAD change, Diff tradipitant vs placebo ([1]; PM group, 100 mg qd): 0.88 | VAS Worst change, Diff tradipitant vs placebo ([1]; PM group, 100 mg qd): 8.99 | VRS change, Diff tradipitant vs placebo ([1]; PM group, 100 mg qd): −0.13 | efficacy analysis of pruritus measures compared with placebo ([1]; PM group, 100 mg qd): no significant differences between tradipitant and placebo | PBI ([1]; PM group, 100 mg qd, N = 13): 1.01 | VAS Average change, Diff tradipitant vs placebo ([1]; PM group, 100 mg qd, tradipitant N = 13 vs placebo N = 11): 5.82 | VAS change from baseline compared with placebo (pre-specified primary endpoint) ([1]; all patients, 100 mg qd): no statistical difference from placebo
